Experimental data: ChEMBL document CHEMBL1150523, “Synthesis of 1-(2-Deoxy-2-C-fluoromethyl--D-arabinofuranosyl)cytosine as a potential antineoplastic agent” (Bioorg Med Chem Lett, 1994)
Values after ≈ are worked out from the molar mass of the structure shown.

Tests used:
Format in all cases: functional, cell-based
A-375 = experiment: Inhibitory concentration against melanoma A-375 cell line for cytotoxicity was determined; conditions: Homo sapiens
CCRF-HSB-2 = experiment: Inhibitory concentration against human T-cell line CCRF-HSB-2 for cytotoxicity was determined
COLO 320DM = experiment: Inhibitory concentration against colon adenocarcinoma COLO 320DM cell line for cytotoxicity was determined; conditions: Homo sapiens
[1] = system: KATO III stomach cancer cell line; experiment: Inhibitory concentration against stomach adenocarcinoma KATO-III cell line for cytotoxicity was determined; conditions: Homo sapiens
KB = experiment: Inhibitory concentration against solid tumor KB cell line for cytotoxicity was determined; conditions: Homo sapiens
PC-8 = experiment: Inhibitory concentration against lung adenocarcinoma PC-8 cell line for cytotoxicity was determined; conditions: Homo sapiens

For `Nc1ccn([C@@H]2O[C@H](CO)C(O)C2CF)c(=O)n1` (single isomer, unassigned), the IC50 (A-375) was 1.6 µg/mL (≈ 6.17 µM), the IC50 (CCRF-HSB-2) was 0.03 µg/mL (≈ 0.116 µM) and the IC50 (COLO 320DM) was 1.6 µg/mL (≈ 6.17 µM). It also gave an IC50 [1] of 11 µg/mL (≈ 42.4 µM), an IC50 (KB) of 4.47 µg/mL (≈ 17.2 µM) and an IC50 (PC-8) of 26 µg/mL (≈ 100 µM).
